Legend:
[1] = test system: level of serotonin, noradrenalin and dopamine in cingulate frontal cortex; test: Microdialysis experiment in the rat; type: in vivo; conditions: rat frontal cortex dialysate, 10 mg/kg subcutaneously
Procedure: Rats are anaesthetised with pentobarbital (60 mg/kg i.p.). They are placed in a Kopf stereotactic device and the cannula guide is implanted in the cingulate frontal cortex in accordance with the coordinates described in the Paxinos and Watson atlas (1982) as follows: AP=+2.2; L=±0.6; DV=−0.2. The rats are placed in separate cages and are not used in dialysis until 5 days later. […] The probe is perfused at a flow rate of 1 μl/mn with a solution of 147.2 mM NaCl, 4 mM KCl and 2.3 mM CaCl2 adjusted to pH 7.3 with a phosphate buffer (0.1 M). Two hours after implantation, samples are collected every 20 minutes for 4 hours. Three baseline samples are taken before administration of the products to be tested. The rats are left in their individual cages for the whole of the experiment. When the experiment is finished, the rats are decapitated and the brain is removed and frozen in isopentane. Sections of a thickness of 100 μm are cut and stained with cresyl violet, which allows verification of the location of the probes.
The simultaneous quantification of dopamine, norepinephrine and serotonin is carried out as follows: 20 μl dialysis samples are each diluted with 20 μl of mobile phase (NaH2PO4: 75 mM, EDTA: 20 μM, sodium 1-decanesulphonate: 1 mM, methanol: 17.5%, triethylamine: 0.01%, pH: 5.70) and 33 μl samples are analysed by HPLC using a reverse phase column thermostatically maintained at 45° C. and quantified by means of a coulometric detector. The potential of the first electrode of the detector is set at −90 mV (reduction) and that of the second at +280 mV (oxidation). The mobile phase is injected at a flow rate of 2 ml/mn using a pump. The sensitivity limits for dopamine, norepinephrine and serotonin are 0.55 fmol per sample. All the products of the invention are injected subcutaneously in a volume of 1.0 ml/kg. The products are dissolved in distilled water to which a few drops of lactic acid have been added if necessary.

[2] = test system: spontaneous marble-burying behaviour of mice; test: Marble-burying test in mice; type: in vivo; conditions: male NMRI mice, 30 minutes' free exploration, s.c.
Source text: This test enables evaluation of the capacity of pharmacological agents to inhibit the spontaneous marble-burying behaviour of mice, the inhibition being predictive of antidepressant and/or anti-impulsive action. Male mice of the NMRI strain (Iffa-Credo, l'Arbresle, France) weighing from 20 to 25 g on the day of the experiment are placed individually in Macrolon® boxes (30×18×19 cm) containing 5 cm of sawdust and covered with a perforated plexiglass plate. Twenty-four “tiger's eye” glass marbles are evenly distributed on the sawdust at the periphery of the box. At the end of 30 minutes' free exploration, the animals are removed from the box and the number of buried marbles is counted.

Compound	increase of the level of dopamine (maximum % of the effect compared with the baseline level defined as 0%) [1]	increase of the level of noradrenalin (maximum % of the effect compared with the baseline level defined as 0%) [1]	increase of the level of serotonin (maximum % of the effect compared with the baseline level defined as 0%) [1]	Marble-burying in mice, ID50 (inhibitory dose50) [2]
CN(C)CC1(C2(O)CCCCC2)Cc2cc3occc3cc21 (centres unmarked) [Example 5, 1-{5-[(Dimethylamino)methyl]-5,6-dihydrocyclobuta[f][1]benzofuran-5-yl}cyclohexanol]	400±50%	500±13%	250±15%	0.6 mg/kg s.c.
CNCCC(Oc1ccc(C(F)(F)F)cc1)c1ccccc1 (centres unmarked) [Fluoxetine, fluoxetine, reference compound]	–	–	–	8.03 mg/kg s.c.

From patent publication US6420413B2, “Heterocycloalkylbenzocyclobutane and heteroarylbenzocyclobutane compounds” (Les Laboratories Servier, priority 2000, dated 2002)
